In patent US20180344726A1, “ABUSE RESISTANT TRANSDERMAL DELIVERY DEVICES AND COMPOSITIONS COMPRISING AN OPIOID AGONIST AND A NON-TRANSDERMALLY DELIVERED N-OXIDE DERIVATIVE OF AN OPIOID ANTAGONIST FOR THE TREATMENT OF PAIN” (priority 2015, published 2018):

How the values were obtained:
[1] = pKa analysis by pH-metric triple titration; type: physicochemical; details: […] C., […] KCl
Method: pKa analysis was performed using a pH-metric method. […] No precipitation or degradation was observed and two pKas were determined from the potentiometric data. Log P was determined using the potentiometric (pH-metric method). The sample was titrated in various ratios of octanol/water in two titrations covering the pH range 2.0-12.0 at concentrations of 1.9-1.1 mM. The shift of the aqueous pKas in the presence of octanol was used to determine the log P of the neutral species.

[2] = In vitro skin permeation from prototype transdermal patches (Franz cell); type: in vitro ADME, human; details: patches with naloxone N-oxide:opioid agonist 1:1, 3:1 or 5:1 by weight
Method: (§1) Naloxone N-oxide was incorporated into a prototype transdermal patch along with an opioid agonist. […] Batches of patches were prepared by weighing the appropriate amounts of the opioid agonist, Naloxone N-oxide and dry patch matrix of poly(meth)acrylate and dissolving in ethylacetate. The matrix solvent system was added and stirred for 30 minutes on a magnetic stirrer to yield a homogenous mixture. After mixing, the drug/polymer mixture was hand cast onto a release liner, Loparex Prime Liner FL 2000. Casting was carried out with a casting knife of variable width to achieve a target dry area weight matrix of 55 g/m^2. The cast was then dried at room temperature for 10 minutes, transferred to a convection oven and dried at 70° C. for 15 minutes and at 100° C. for 5 minutes. Finally the dried casts were hand-laminated with an occlusive backing, Scotchpak 9738, and patches were cut out of the laminate with 0.82 cm^2 cutting dies for skin permeation and 5 cm^2 for stability experiments.
The in vitro skin permeation of opioid agonist from each of the patches was tested using a Franz cell as described above.

[3] = Stability of prototype patches over 6 days at 60° C.; type: physicochemical
Method: as §1
The stability of each of the patches over 6 days at 60° C. was also tested.

In the case of `C=CC[N+]1([O-])CC[C@]23c4c5ccc(O)c4O[C@H]2C(=O)CC[C@@]3(O)[C@H]1C5` (stereo partly shown) [Naloxone N-oxide], the pKa ([1]; Type Acid) is reported as 8.55 ± 0.01, the pKa ([1]; Type Base) is reported as 2.96 ± 0.01 and the “N-oxide permeated through the skin from patch” value [2] is reported as “no detectable levels”. For the same compound, the “Impact on the stability of the patch” value [3] was “does not impact on the stability of the patch”.
